The text below walks through data of US5681863A, “Non-metabolizable clomiphene analogs for treatment of tamoxifen-resistant tumors” (Merrell Pharmaceuticals Inc., priority 1994, dated 1997).

A word on the IC50: it is the midpoint of a concentration-inhibition curve.

One assay has as its system LY2. The assay is described as follows: Antiproliferation test, LY-2 human breast cancer cells (MCF-7 variant resistant to tamoxifen). The format is cell-based. To be noted: for IC50: Homo sapiens, MCF7, 168 h, read-out: TRIPHENYLETHYLENE IC50's AGAINST BREAST CANCER CELLS, IC50, Cell line LY2; for IC50 compared with tamoxifen, in words (both cell lines: LY-2): statement in words. As for the experimental part:
(§1) Antiproliferation test Procedure:
(§2) The tests were conducted in 96-well microtiter plates. 5×10^3 cells were added to each well. Culture medium and drug solutions were added to wells with a Perkin Elmer Cetus PRO/PETTE. The culture medium was IMEM supplemented with 5% fetal bovine serum. Eight drug concentrations were tested, in duplicate, from 0.078 micromolar (μM) to 10 μM. After four days incubation the medium was replaced with fresh medium containing drug, and after a total of seven days, the cell monolayers were fixed with trichloracetic acid and stained with sulforhodamine dye. Absorbances (492 nm) of the extracted dye solutions were measured with a Titertek Multiscan plate reader.

Another assay concerns MCF-7. The assay is described as follows: Antiproliferation test, MCF-7 human breast cancer cells (tamoxifen-sensitive). It counts as cell-based. To be noted: for IC50: Homo sapiens, MCF7, 168 h, read-out: TRIPHENYLETHYLENE IC50's AGAINST BREAST CANCER CELLS, IC50, Cell line MCF-7; for IC50 compared with tamoxifen, in words (both cell lines: MCF-7): statement in words. The method, then: as §1, §2

Structures can show the parent of a compound that is named as a salt.

Take `CCN(CC)CCSc1ccc(C(=C(Cl)c2ccccc2)c2ccccc2)cc1` [MDL 10007F, 2-[p-(2-Chloro-1,2-diphenylvinyl)-phenylthio]triethylamine Dihydrogen Citrate]: in the assay on LY2, the half-inhibitory concentration (IC50) came out at 1000 nM and the “IC50 compared with tamoxifen, in words (both cell lines: LY-2)” value was “lower than the IC50 values of tamoxifen”. Besides, in the assay with MCF-7, the IC50 was found to be 370 nM and the “IC50 compared with tamoxifen, in words (both cell lines: MCF-7)” value is “lower than the IC50 values of tamoxifen”.

As to `CCN(CC)CCNc1ccc(C(=C(Cl)c2ccccc2)c2ccccc2)cc1` [MDL 10222F, 2-[p-(2-Chloro-1,2-diphenylvinyl)-anilino]triethylamine Dihydrogen Citrate], in the assay on LY2, the 50% inhibitory concentration (IC50) is 3800 nM and the “IC50 compared with tamoxifen, in words (both cell lines: LY-2)” value is listed as “lower than the IC50 values of tamoxifen”. In addition, in the assay on MCF-7, the IC50 came out at 700 nM and the “IC50 compared with tamoxifen, in words (both cell lines: MCF-7)” value was “lower than the IC50 values of tamoxifen”.

Regarding `CCN(CC)CCCc1ccc(C(=C(Cl)c2ccccc2)c2ccccc2)cc1` [MDL 6866F, 1-[p-γ-diethylaminopropyl)phenyl]-1,2-diphenylchloroethylene dihydrogen citrate], in the assay with LY2, the IC50 was found to be 1600 nM and the “IC50 compared with tamoxifen, in words (both cell lines: LY-2)” value is “lower than the IC50 values of tamoxifen”. Besides, in the assay with MCF-7, the 50% inhibitory concentration (IC50) amounted to 320 nM and the “IC50 compared with tamoxifen, in words (both cell lines: MCF-7)” value is given as “lower than the IC50 values of tamoxifen”.
